Common to all, as to assay type: in vivo
The subject of one assay is male C57BL/6 mice. In words: DSS induced acute colitis in mice. The conditions noted are these: even after day 12. The protocol: The effect of PC-tuftsin derivative (SEQ ID NO: 25) on colitis development was determined in a mouse model subjected to induction of acute colitis by dextran sulfate sodium (DSS) treatment. Specifically, induction of colitis was carried out in male C57BL/6 mice (“colitis mice”) by supplementing the drinking water (2.5% wt/v) for five days with DSS (mol. wt. 36,000-50,000).
Two groups of mice were fed daily via oral ingestion using a feeding-needle, with PC-tuftsin derivative at a concentration of 500 μg/0.1 ml per mouse (treatment; n=10), or PBS (control; n=10). These compounds were given during 11 days starting two days before DSS administration.
Assessment of colitis development was performed by monitoring body weight, rectal bleeding, stool consistency, and survival every second day. Intestinal bleeding was followed by Hemoccult test and observation of bleeding signs on the anus or gross bleeding. The daily disease activity index (DAI) was calculated by grading on a scale of zero to four the following parameters: change in weight (0, <1%; 1, 1-5%; 2, 5-10%; 3, 10— 15%; and 4, >15%), intestinal bleeding (0, negative; 4, positive), and stool consistency (0, normal; 2, loose stools; 4, diarrhea). The combined scores were then divided by three to obtain the final disease activity index. Ten days following disease induction, mice were sacrificed and the large intestine was collected and evaluated for colon length and microscopic colonic damage. For microscopic scoring, the proximal, medial, and distal portions of the colon and the cecum were fixed in 10% phosphate-buffered formalin. Paraffin-embedded sections were stained with H&E. The degree of histological damage and inflammation was graded in a blinded fashion by an expert pathologist

Assay [1] deals with splenocytes of lupus mice. In words: Secreted cytokine protein of splenocytes of lupus mice treated with PC-tuftsin (DuoSet). The conditions noted are these: splenocytes incubated 72 hours. As for the experimental part:
(§1) Mice, from age of 14 weeks, received subcutaneously PC-tuftsin at the concentration of 50 μg/0.1 ml per mouse (treatment; n=10) or PBS (control; n=10), three times a week. In the cytokines studies, the relative mRNA expression levels of pro-inflammatory cytokine IFNγ and anti-inflammatory cytokine TGFβ were analyzed by real time RT-PCR using LightCycler (Roche). Total RNA was isolated from splenocytes and was reverse-transcribed into cDNA by using Moloney Murine Leukemia Virus Reverse Transcriptase (Promega). The resulting cDNA was subjected to real-time RT-PCR in the presence of specific primers, according to the manufacturer's instructions (Table 2). The relative expression levels of IFNγ and TGFβ were normalized to β-actin levels.
Splenocytes protein level of anti-inflammatory cytokines TGFβ, and IL-10 and pro-inflammatory cytokines IFNγ, and IL-17 were quantified by DuoSet (R&D Systems), according to the manufacturer's instructions. Briefly, spleens from mice treated with PC-tuftsin or PBS were harvested, splenocytes were isolated (5×10^6/ml) and incubated for 72 hours and thereafter assessed for contents of secreted cytokines.

In assay [2] the test system is NZBXW/F1 mice. In words: Proteinuria in lupus mice treated with PC-tuftsin (Multistix). The conditions noted are these: 50 μg/0.1 ml s.c. 3 times a week from 14 weeks; vs PBS. As for the experimental part:
The effect of PC-tuftsin (TPC) on proteinuria was determined in a mouse model for lupus, specifically, female NZBXW/F1 mice that develop lupus on a genetic background. Proteinuria levels were measured using Multistix (Bayer Diagnostics). This type of measurement is typically used in the clinic for assessing manifestation of lupus nephritis. Lupus nephritis is an inflammation of the kidney caused by systemic lupus erythematosus (SLE).
The mice, from age of 14 weeks, received subcutaneously PC-tuftsin at the concentration of 50 μg/0.1 ml per mouse (treatment; n=10) or PBS (control; n=10), three times a week. Proteinuria was defined as having a protein level of above 100 mg/dl in the urine.

The test system of assay [3] is NZBXW/F1 mice. In words: Kidney morphology in lupus mice treated with PC-tuftsin (PAS, immunofluorescence). As to conditions: 50 μg/0.1 ml s.c. 3 times a week. As for the experimental part:
The effect of PC-tuftsin on the morphology of kidneys was determined in a lupus mouse model as in Examples 2. Kidney section obtained from kidneys of mice sacrificed after treatments were paraffin embedded. PAS staining was used to detect pathology of nephritis. Immunofluorescence staining was used for detecting immune complex deposits. The latter was implemented by incubating the paraffin embedded sections with FITC-conjugated-anti-mouse-IgG. Evaluation was performed by a pathologist.
Mice, from age of 14 weeks, received subcutaneously PC-tuftsin at the concentration of 50 μg/0.1 ml per mouse (treatment; n=10) or PBS (control; n=10), three times a week.

The next assay concerns Tregs CD4+CD25+FOXP3+. Put plainly: T regulatory cell profiling by FACS in splenocytes of lupus mice (PC-tuftsin study). As to conditions: PBS 4±0.6 percent. The protocol: as §1
Finally, a T regulatory cell (Tregs) profiling assay was performed in isolated splenocytes incubated with the following antibodies: anti-CD4^+FITC, anti-CD25^+APC and anti-FOXP3^+PE (eBioscience) and analyzed by FACS. Forward and side scatter gates adjusted to include all cells and to exclude debris (Becton Dickinson). Cells were gated on CD4+ cells, and for intracellular staining, the cells were incubated with a fixation solution, washed and resuspended in permeabilization solution (Serotec). Isotype control was used as reference.
A general note: A flow cytometer gives signals particle by particle.

Assay [4] concerns splenocytes of lupus mice. Put plainly: Cytokine mRNA in splenocytes of lupus mice treated with PC-tuftsin (real time RT-PCR). As to conditions: normalized to β-actin; vs PBS. As for the experimental part:
as §1
For orientation: In qPCR the cycle at which signal appears reflects the starting amount.

We go through 1 substance from patent publication US12350308B2, “Phosphorylcholine conjugates and uses thereof” (TPCERA LTD., priority 2013, dated 2025).

Where no end group is shown, it is not given here.

For “PC-tuftsin: PC conjugated to tuftsin (threonine-lysine-proline-arginine, TKPR; SEQ ID NO: 17) using 4-aminophenylphosphorylcholine (also: phosphorylcholine conjugated via 4-aminophenylphosphorylcholine, site not given here)”, the mice still alive in the assay with male C57BL/6 mice is 100%. Further, in assay [1] (vs PBS), the “increase in protein level of IL-10” value was found to be 4.8 and the “increase in protein level of TGFβ” value came out at 5.1. For the same substance, in assay [1] (vs control), the “reduction of IFNγ concentration” value was 5.2 fold and the “reduction of IL-17 concentration” value was 2.7 fold. The “proteinuria (protein level above 100 mg/dl)” value in the assay on NZBXW/F1 mice [2] is listed as “significant attenuation”. For the same substance, the “pathology of nephritis (PAS staining)” value with NZBXW/F1 mice [3] was “did not display any pathology of nephritis”. Also, in the assay on NZBXW/F1 mice [3] (vs PBS), the “immune complex deposits in the glomeruli” value is “very mild immune complex deposits”. Moreover, the “enhancement in Tregs CD4+CD25+FOXP3+ expression level” value in the assay on Tregs CD4+CD25+FOXP3+ was determined as 18±2%. Besides, in assay [4], the “relative mRNA expression of IFNγ in splenocytes” value is recorded as “significantly reduced” and the “relative mRNA expression of TGFβ in splenocytes” value is recorded as “significantly enhanced”.
